Data as given in patent US20160129011A1, “BICYCLO 2,3-BENZODIAZEPINES AND SPIROCYCLICALLY SUBSTITUTED 2,3-BENZODIAZEPINES” (BAYER PHARMA AKTIENGESELLSCHAFT, priority 2013, published 2016).

Columns and labels:
[1] = system: MOLM-13 cells; test: Cell proliferation assay (alamarBlue), MOLM-13; type: cell-based; conditions: Homo sapiens, MOLM-13; acute myeloid leukaemia cell line, 96 h incubation
Method: (§1) In accordance with the invention, the ability of the substances to inhibit cell proliferation was determined. Cell viability was determined by means of the alamarBlue® reagent (Invitrogen) in a Victor X3 Multilabel Reader (Perkin Elmer). The excitation wavelength was 530 nm and the emission wavelength […].
The MOLM-13 cells (DSMZ, ACC 554) were sown at a concentration of 4000 cells/well in 100 μl of growth medium (RPMI1640, 10% FCS) on 96-well microtitre plates.
(§2) The MDA-MB-231 cells (DSMZ, ACC 732) were sown at a concentration of 4000 cells/well in 100 μl of growth medium (DMEM/Ham's F12 medium, 10% FCS) on 96-well microtitre plates. After overnight incubation at 37° C., the fluorescence values (CI values) were determined. Then the plates were treated with various substance dilutions (1E-5 M, 3E-6 M, 1E-6 M, 3E-7 M, 1E-7 M, 3E-8 M, 1E-8 M) and incubated at 37° C. for 72 (MV4-11, LOX-IMVI cells), 96 (MOLM-13, B16F10, […] cells), 120 (MOLP-8, KMS-12-PE cells) or 168 (LAPC-4 cells) hours. Subsequently, the fluorescence values were determined (CO values). For the data analysis, the CI values were subtracted from the CO values and the results were compared between cells which had been treated with various dilutions of the substance or only with buffer solution. This was used to calculate the IC50 values (substance concentration required for 50% inhibition of cell proliferation).
(§3) The substances were examined in the cell lines of Table 1 which, in an exemplary manner, represent the stated indications: […]

[2] = molecular target: T1, BRD4 (BD1) (Homo sapiens, UniProt O60885); test: Binding assay BRD4/acetylated peptide H4 (TR-FRET protein-protein interaction assay); conditions: BRD4 (BD1) / acetylated histone H4 peptide
T1 construct: longer constructs also being possible, preferably amino acids 44-168; made in house; host or cells: E. coli
Text: To assess the BRD4 binding strength of the substances described in this application, the ability thereof to inhibit the interaction between BRD4 (BD1) and acetylated histone H4 in a dose-dependent manner was quantified.
For this purpose, a time-resolved fluorescence resonance energy transfer (TR-FRET) assay was used, which measures the binding between N-terminally His6-tagged BRD4 (BD1) (amino acids 67-152, longer constructs also being possible, preferably amino acids 44-168) and a synthetic acetylated histone H4 (Ac—H4) peptide with sequence GRGK(Ac)GGK(Ac)GLGK(Ac)GGAK(Ac)RHGSGSK-biotin. The recombinant BRD4 protein produced in-house according to Filippakopoulos et al., Nature, 2010, 468:1119-1123 was expressed in E. coli and purified by means of (Ni-NTA) affinity and (Sephadex G-75) size exclusion chromatography. The Ac—H4 peptide can be purchased, for example, from Biosyntan (Berlin, Germany).
In the assay, typically 11 different concentrations of each substance (0.1 nM, 0.33 nM, 1.1 nM, 3.8 nM, 13 nM, 44 nM, 0.15 μM, 0.51 μM, 1.7 μM, 5.9 μM and 20 μM) were analysed as duplicates on the same microtitre plate. For this purpose, 100-fold concentrated solutions in DMSO were prepared by serial dilutions (1:3.4) of a 2 mM stock solution into a clear, 384-well microtitre plate (Greiner Bio-One, Frickenhausen, Germany). From this, 50 nl were transferred into a black test plate (Greiner Bio-One, Frickenhausen, Germany). The test was started by the addition of 2 μl of a 2.5-fold concentrated BRD4 solution (final concentration typically 10 nM in the 5 μl of reaction volume) in aqueous assay buffer [50 mM HEPES pH 7.5, 50 mM sodium chloride (NaCl), 0.25 mM CHAPS and 0.05% serum albumin (BSA)] to the substances in the test plate. This was followed by a 10-minute incubation step at 22° C. for the pre-equilibration of putative complexes between BRD4 and the substances.
The mixture was then incubated in the dark at 22° C. for one hour and then at 4° C. for at least 3 hours and for no longer than overnight. The formation of BRD4/Ac—H4 complexes was determined by the measurement of the resonance energy transfer from the streptavidin-Eu cryptate to the anti-6His-XL665 antibody present in the reaction. For this purpose, the fluorescence emission was measured at 620 nm and 665 nm after excitation at 330-350 nm in a TR-FRET measuring instrument, for example a Rubystar or Pherastar (both from BMG Lab Technologies, Offenburg, Germany) or a Viewlux (Perkin-Elmer). The ratio of the emissions at 665 nm and at […] was taken as an indicator of the amount of BRD4/Ac—H4 complexes formed.
The data (ratios) obtained were normalized, with 0% inhibition corresponding to the mean from the measurements for a set of controls (typically 32 data points) in which all the reagents were present. In these, in place of test substances, 50 nl of DMSO (100%) were used. Inhibition of 100% corresponded to the mean from the measurements for a set of controls (typically 32 data points) in which all the reagents except BRD4 were present. The IC50 was determined by regression analysis based on a 4-parameter equation (minimum, maximum, IC50, Hill; Y=max+(min−max)/(1+(X/IC50)^Hill)).

[3] = system: MOLP-8 cells; test: Cell proliferation assay (alamarBlue), MOLP-8; type: cell-based; conditions: Homo sapiens, MOLP-8; multiple myeloma cell line, 120 h incubation
Method: as §1
The MOLP-8 cells (DSMZ, ACC 569) were sown at a concentration of 4000 cells/well in 100 μl of growth medium (RPMI1640, 20% FCS) on 96-well microtitre plates.
as §2, §3

Row | SMILES | IC50 [1] [nM] | IC50 [2] [nM] | IC50 [3] [nM]
1 | CNC(=O)N1N=C(c2ccc(N3C[C@H]4CC[C@@H](C3)O4)cc2)c2cc(OC)c(OC)cc2C[C@H]1C [Example 4.1, (4R)-7,8-dimethoxy-N,4-dimethyl-1-[4-(8-oxa-3-azabicyclo[3.2.1]oct-3-yl)phenyl]-4,5-dihydro-3H-2,3-benzodiazepine-3-carboxamide] | 6090 | 1850 | 
2 | CNC(=O)N1N=C(c2ccc(N3CC4(CCS4(=O)=O)C3)cc2)c2cc(OC)c(OC)cc2CC1C (racemic) [Example 3, 1-[4-(1,1-dioxido-1-thia-6-azaspiro[3.3]hept-6-yl)phenyl]-7,8-dimethoxy-N,4-dimethyl-4,5-dihydro-3H-2,3-benzodiazepine-3-carboxamide] | 150 | 20 | 
3 | CNC(=O)N1N=C(c2ccc(N3[C@@H]4CC[C@H]3CC(=O)C4)cc2)c2cc(OC)c(OC)cc2C[C@@H]1C [Example 6.2, (4S)-7,8-dimethoxy-N,4-dimethyl-1-[4-(3-oxo-8-azabicyclo[3.2.1]oct-8-yl)phenyl]-4,5-dihydro-3H-2,3-benzodiazepine-3-carboxamide] | 50 | 20 | 
4 | CNC(=O)N1N=C(c2ccc(-c3cccc4ncccc34)cc2)c2cc(OC)c(OC)cc2CC1C (racemic) [Example 23, (±)-1-[4-(quinolin-5-yl)phenyl]-7,8-dimethoxy-N,4-dimethyl-4,5-dihydro-3H-2,3-benzodiazepine-3-carboxamide] | 250 | 60 | 
5 | CNC(=O)N1N=C(c2ccc(N3[C@@H]4CC[C@H]3CC(=O)C4)cc2)c2cc(OC)c(OC)cc2C[C@H]1C [Example 6.1, (4R)-7,8-dimethoxy-N,4 dimethyl-1-[4-(3-oxo-8-azabicyclo[3.2.1]oct-8-yl)phenyl]-4,5-dihydro-3H-2,3-benzodiazepine-3-carboxamide] | 450 | 1230 | 
6 | CNC(=O)N1N=C(c2ccc(N3C(=O)C4CCC3C4)cc2)c2cc(OC)c(OC)cc2CC1C (stereo not drawn) [Example 1, [1S-(1R*,4S*)]-7,8-Dimethoxy-N,4-dimethyl-1-[4-(3-oxo-2-azabicyclo[2.2.1]hept-2-yl)phenyl]-4,5-dihydro-3H-2,3-benzodiazepine-3-carboxamide] | 140 | 30 | 
7 | CNC(=O)N1N=C(c2ccc(-c3ccnc4ccccc34)cc2)c2cc(OC)c(OC)cc2CC1C (racemic) [Example 24, (±)-1-[4-(quinolin-4-yl)phenyl]-7,8-dimethoxy-N,4-dimethyl-4,5-dihydro-3H-2,3-benzodiazepine-3-carboxamide] | 390 | 70 | 

Continued by falling IC50 [1], values first:

Row | IC50 [1] [nM] | IC50 [2] [nM] | SMILES | IC50 [3] [nM]
8 | 710 | 90 | CNC(=O)N1N=C(c2ccc(-c3ccc4c(c3)OCCO4)cc2)c2cc(OC)c(OC)cc2CC1C (racemic) [Example 21, (±)-1-[4-(2,3-dihydro-1,4-benzodioxin-6-yl)phenyl]-7,8-dimethoxy-N,4-dimethyl-4,5-dihydro-3H-2,3-benzodiazepine-3-carboxamide] | 
9 | 560 | 90 | CNC(=O)N1N=C(c2cccc(N3CC4CCC(C3)O4)c2)c2cc(OC)c(OC)cc2CC1C (racemic) [Example 13, (±)-7,8-dimethoxy-N,4-dimethyl-1-[3-(8-oxa-3-azabicyclo[3.2.1]oct-3-yl)phenyl]-4,5-dihydro-3H-2,3-benzodiazepine-3-carboxamide] | 
10 | 550 | 60 | CNC(=O)N1N=C(c2ccc(-c3cncc4ccccc34)cc2)c2cc(OC)c(OC)cc2CC1C (racemic) [Example 26, (±)-1-[4-(isoquinolin-4-yl)phenyl]-7,8-dimethoxy-N,4-dimethyl-4,5-dihydro-3H-2,3-benzodiazepine-3-carboxamide] | 
11 | 550 | 50 | CNC(=O)N1N=C(c2ccc(-c3ccc4c(c3)CCO4)cc2)c2cc(OC)c(OC)cc2CC1C (racemic) [Example 22, (±)-1-[4-(2,3-dihydro-1-benzofuran-5-yl)phenyl]-7,8-dimethoxy-N,4-dimethyl-4,5-dihydro-3H-2,3-benzodiazepine-3-carboxamide] | 
12 | 530 | 50 | CNC(=O)N1N=C(c2ccc(-c3ccc4c(ccn4C)c3)cc2)c2cc(OC)c(OC)cc2CC1C (racemic) [Example 25, (±)-7,8-dimethoxy-N,4-dimethyl-1-[4-(1-methyl-1H-indol-5-yl)phenyl]-4,5-dihydro-3H-2,3-benzodiazepine-3-carboxamide] | 
13 | 220 | 90 | CNC(=O)N1N=C(c2ccc(N3C[C@H]4CN(C)C[C@H]4C3)cc2)c2cc(OC)c(OC)cc2CC1C (mixture of isomers) [Example 33, (±)-7,8-dimethoxy-N,4-dimethyl-1-{4-[(3aR,6aS)-5-methylhexahydropyrrolo[3,4-c]pyrrol-2(1H)-yl]phenyl}-4,5-dihydro-3H-2,3-benzodiazepine-3-carboxamide] | 110
14 | 210 | 20 | CNC(=O)N1N=C(c2ccc(N3CC4(COC4)C3)cc2)c2cc(OC)c(OC)cc2CC1C (racemic) [Example 5, (±)-7,8-dimethoxy-N,4-dimethyl-1-[4-(2-oxa-6-azaspiro[3.3]hept-6-yl)phenyl]-4,5-dihydro-3H-2,3-benzodiazepine-3-carboxamide] | 
15 | 200 | 70 | CNC(=O)N1N=C(c2ccc(N3CCN4CCCC4C3)cc2)c2cc(OC)c(OC)cc2CC1C (racemic) [Example 30, (±)-1-[4-(hexahydropyrrolo[1,2-a]pyrazin-2(1H)-yl)phenyl]-7,8-dimethoxy-N,4-dimethyl-4,5-dihydro-3H-2,3-benzodiazepine-3-carboxamide] | 90
16 | 110 | 20 | CNC(=O)N1N=C(c2ccc(N3CC4(COC4)C3)cc2)c2cc(OC)c(OC)cc2C[C@@H]1C [Example 5.1, (4S)-7,8-dimethoxy-N,4-dimethyl-1-[4-(2-oxa-6-azaspiro[3.3]hept-6-yl)phenyl]-4,5-dihydro-3H-2,3-benzodiazepine-3-carboxamide] | 
17 | 100 | 30 | CNC(=O)N1N=C(c2ccc(N3C[C@H]4CC[C@@H](C3)O4)cc2)c2cc(OC)c(OC)cc2CC1C (mixture of isomers) [Example 4, (±)-7,8-dimethoxy-N,4-dimethyl-1-[4-(8-oxa-3-azabicyclo[3.2.1]oct-3-yl)phenyl]-4,5-dihydro-3H-2,3-benzodiazepine-3-carboxamide] | 
